These results are taken from ChEMBL document CHEMBL1201862, “PubChem BioAssay data set” (2004).

The target of test [1] is T1, Replicative DNA helicase DnaB (Mycobacterium tuberculosis, UniProt P9WMR3).
T1 sequence (P9WMR3 whole entry): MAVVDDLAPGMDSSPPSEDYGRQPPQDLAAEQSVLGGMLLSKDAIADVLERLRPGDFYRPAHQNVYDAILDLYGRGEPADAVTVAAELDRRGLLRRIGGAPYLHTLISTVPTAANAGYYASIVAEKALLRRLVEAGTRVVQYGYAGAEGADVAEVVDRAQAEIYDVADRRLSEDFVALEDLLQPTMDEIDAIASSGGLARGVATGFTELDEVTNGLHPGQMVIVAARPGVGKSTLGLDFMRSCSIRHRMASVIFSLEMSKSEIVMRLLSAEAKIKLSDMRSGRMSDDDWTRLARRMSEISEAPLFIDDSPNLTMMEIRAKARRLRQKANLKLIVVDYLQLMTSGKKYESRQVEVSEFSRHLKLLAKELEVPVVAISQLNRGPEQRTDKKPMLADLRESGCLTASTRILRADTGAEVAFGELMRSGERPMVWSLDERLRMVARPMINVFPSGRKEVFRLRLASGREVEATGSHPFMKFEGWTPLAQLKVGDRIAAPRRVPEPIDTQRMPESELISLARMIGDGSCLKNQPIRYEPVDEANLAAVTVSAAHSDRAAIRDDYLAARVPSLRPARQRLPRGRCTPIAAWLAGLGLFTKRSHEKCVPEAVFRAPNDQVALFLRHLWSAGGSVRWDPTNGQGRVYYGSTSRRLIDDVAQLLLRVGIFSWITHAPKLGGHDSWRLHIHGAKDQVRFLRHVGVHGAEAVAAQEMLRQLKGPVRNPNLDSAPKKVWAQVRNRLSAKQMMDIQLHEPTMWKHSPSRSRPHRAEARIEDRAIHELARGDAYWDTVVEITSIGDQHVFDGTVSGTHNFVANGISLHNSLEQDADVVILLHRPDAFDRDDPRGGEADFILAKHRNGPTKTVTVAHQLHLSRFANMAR
Nature of the test: DnaB intein splicing inhibitors, dose response, biochemical, cell-free fluorescence (AID 449749). Format: functional.

A further test addresses T2, Protein RecA (Mycobacterium tuberculosis, UniProt P9WHJ3).
T2 sequence (P9WHJ3 whole entry): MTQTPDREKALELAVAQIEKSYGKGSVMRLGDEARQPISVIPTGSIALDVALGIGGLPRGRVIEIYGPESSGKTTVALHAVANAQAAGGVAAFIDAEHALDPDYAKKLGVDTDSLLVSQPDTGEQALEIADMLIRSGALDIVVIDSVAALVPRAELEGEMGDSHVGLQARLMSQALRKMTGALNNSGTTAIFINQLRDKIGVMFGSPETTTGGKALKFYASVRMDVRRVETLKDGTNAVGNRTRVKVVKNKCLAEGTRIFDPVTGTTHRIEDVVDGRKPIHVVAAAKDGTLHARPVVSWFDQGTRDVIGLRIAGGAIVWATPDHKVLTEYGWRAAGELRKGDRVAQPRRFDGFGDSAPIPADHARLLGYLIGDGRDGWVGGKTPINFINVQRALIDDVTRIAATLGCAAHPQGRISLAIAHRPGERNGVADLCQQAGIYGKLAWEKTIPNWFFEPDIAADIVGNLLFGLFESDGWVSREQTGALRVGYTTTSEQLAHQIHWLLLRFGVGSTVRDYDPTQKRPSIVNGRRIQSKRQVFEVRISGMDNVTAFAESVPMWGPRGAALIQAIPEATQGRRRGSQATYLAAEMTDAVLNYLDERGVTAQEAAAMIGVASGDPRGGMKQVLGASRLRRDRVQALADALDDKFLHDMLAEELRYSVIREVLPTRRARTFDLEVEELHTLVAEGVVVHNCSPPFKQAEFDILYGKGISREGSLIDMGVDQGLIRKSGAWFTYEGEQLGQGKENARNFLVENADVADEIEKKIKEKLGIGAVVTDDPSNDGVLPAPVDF
Nature of the test: Fluorescence Cell-Free Homogeneous Dose Retest to Identify Inhibitors of RecA-Intein Splicing Activity. [Related pubchem assays (depositor defined):AID2097, AID2223, AID489010, AID492950]. Format: functional.

A further test can be described thus: cells. Type of test: functional.
Test [2] addresses Glyceraldehyde-3-phosphate dehydrogenase (Homo sapiens, UniProt P04406).
Test [3] has as its target FAD-linked sulfhydryl oxidase ALR (Homo sapiens, UniProt P55789). Nature of the test: inhibitors of human ALR sulfhydryl oxidase, dose response, biochemical, H2O2 detection, luminescence, cherry-pick (AID 493248).
The nature of test [4]: growth suppression of PTEN-null colon cells, dose response, cell-based, HCT116 PTEN knockout (AID 1047).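 Note: HCT116 colon tumor cells with PTEN knocked out; cells exposed to compound for 60 hours before readout; potency for loss of cell viability measured by luminescence.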 Format: functional.
Test [5] in a line: growth suppression of beta-catenin-knockout colon cells, dose response, cell-based, HCT116, human colon tumor (AID 1045).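 Note: HCT116 colon tumor cells with beta catenin knocked out; cells exposed to compound for 60 hours.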 Type of test: functional.
In test [6] the target is T3, Carboxy-terminal domain RNA polymerase II polypeptide A small phosphatase 1 (Homo sapiens, UniProt Q9GZU7).
T3 sequence (Q9GZU7 whole entry): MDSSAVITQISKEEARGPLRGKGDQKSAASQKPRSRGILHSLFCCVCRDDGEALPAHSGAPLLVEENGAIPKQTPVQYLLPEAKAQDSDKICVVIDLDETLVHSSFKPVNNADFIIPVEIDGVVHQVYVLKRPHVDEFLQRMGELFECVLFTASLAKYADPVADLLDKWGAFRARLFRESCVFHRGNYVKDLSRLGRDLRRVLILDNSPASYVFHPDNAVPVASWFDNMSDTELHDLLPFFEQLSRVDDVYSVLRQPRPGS
Nature of the test: inhibitors of CTDSP1, concentration-response testing, biochemical assay, absorbance-based, actives from ultra-high-throughput screening (AID 540297). Format: functional.

The subject of a further test is SN12K1. Nature of the test: cells. To be noted: Homo sapiens. Format: functional.
In another test the test system is P388. Nature of the test: cells. Type of test: functional. To be noted: Mus musculus.
The next test relates to P388/ADR. Nature of the test: cells. Type of test: functional. To be noted: Mus musculus.

Calls of active or inactive are those of the source.

Sequence of FAD-linked sulfhydryl oxidase ALR (P55789 whole entry): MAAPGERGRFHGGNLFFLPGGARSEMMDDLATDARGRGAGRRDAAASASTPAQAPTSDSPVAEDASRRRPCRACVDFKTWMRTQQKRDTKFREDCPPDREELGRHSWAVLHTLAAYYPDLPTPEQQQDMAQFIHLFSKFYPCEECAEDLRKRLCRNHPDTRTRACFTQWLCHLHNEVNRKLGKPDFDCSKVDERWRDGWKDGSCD
Sequence of Glyceraldehyde-3-phosphate dehydrogenase (P04406 whole entry): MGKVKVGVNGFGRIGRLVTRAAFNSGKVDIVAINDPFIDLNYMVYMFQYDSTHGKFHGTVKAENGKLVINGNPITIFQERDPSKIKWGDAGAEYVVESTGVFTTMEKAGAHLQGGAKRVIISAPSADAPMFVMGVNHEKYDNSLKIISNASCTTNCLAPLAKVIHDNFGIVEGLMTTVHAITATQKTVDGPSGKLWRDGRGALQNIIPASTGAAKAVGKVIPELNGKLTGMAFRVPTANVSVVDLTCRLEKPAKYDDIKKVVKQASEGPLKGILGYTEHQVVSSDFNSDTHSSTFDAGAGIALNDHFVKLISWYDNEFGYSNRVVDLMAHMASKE

On to `CC(=O)Nc1cccc(OC(=O)COc2ccc(Br)cc2)c1`, for which, in test [1], the AC50 is 11 µM (active). Further, the EC50 on Protein RecA was 20.6 µM (active).

Turning to `CCOC(=O)C1CCCc2c1[nH]c1c(C(N)=O)cccc21` (stereo not given), in “cells”, the IC50 is 5.22 µM (active).

Regarding `O=C1C(Cl)=C(N2CCOCC2)C(=O)N1c1cccc(C(F)(F)F)c1`, the IC50 in test [2] was > 50 µM (inconclusive). Further, the AC50 in [1] was 1.16 µM (inconclusive). Moreover, the EC50 at Protein RecA is 1.64 µM (active).

On to `Cc1cc(O)n2cc(-c3ccccc3)nc2n1`, for which, in test [3], the AC50 is 13.9 µM (active).

In the case of `COc1ccc(N2C(=O)C(F)(F)C2c2cccc(F)c2)cc1` (stereo not given), in “cells”, the IC50 was 5.74 µM (active).

For `CCOc1ccc(C(CC(=O)O)CC(=O)O)cc1`, the IC50 in [2] is recorded as > 100 µM (not active).

For `CCCc1cc(C(=O)N2CCCC(Nc3ccc(C)c(C)c3)C2)n(C)n1` (stereo not given), the AC50 in test [3] is 3.84 µM (active).

For the molecule `CCOC(=O)N1CCC2(CC1)C(C#N)=C(N)Oc1[nH]nc(C)c12`, the AC50 in test [1] is 8.2 µM (active). Further, the EC50 on Protein RecA was 1.43 µM (active).

As to `O=C1C(Cl)=C(N2CCN(CCOCCO)CC2)C(=O)N1c1ccc(C(F)(F)F)cc1`, in test [2], the IC50 is > 50 µM (inconclusive).

As to `CCOc1ccc(CCNc2ccc3nnc(-c4ccccc4)n3n2)cc1OCC`, the values for the EC50 in [4] and in test [5] were 12.7 µM (active) and 26.3 µM (active), respectively.

Consider `O=C1Nc2ccc(S(=O)(=O)NCc3ccco3)c3cccc1c23`, for which the IC50 in test [6] was 10.8 µM (active).

Take `CC(OC(=O)c1ccc2c(=O)n3c(nc2c1)CCCCC3)C(=O)Nc1ccc(Cl)cn1` (stereo not given): the IC50 in “cells” is 20.3 µM (active).

Take `CC1CCCC(C)N1c1nnc(N)s1` (stereo not given): in test [3], the AC50 is 2.31 µM (active).

Regarding `O=S(=O)(Nc1ccc2c(c1)OCO2)c1ccc(F)c(F)c1`, the half-maximal activity concentration (AC50) in [3] was 5.12 µM (active).

With `CN1CCN(C2=C(Cl)C(=O)N(c3ccc(C(F)(F)F)cc3)C2=O)CC1`, the IC50 in [2] was > 50 µM (inconclusive).

Regarding `N#Cc1ccc(-c2ccc(F)cc2)nc1Oc1ccc(Cl)c(Cl)c1`, the results for the EC50 in [4] and in test [5] were 7.18 µM (active) and 3.8 µM (active), respectively.

Take `COc1ccc(CCNC(=O)c2cc(-c3cc(C)ccc3O)n[nH]2)cc1OC`: the AC50 in test [3] is 85.6 µM (active).

As to `O=C1/C(=C/c2c[nH]c3ccccc23)CCC/C1=C\c1c[nH]c2ccccc12`, the EC50 in test [4] was 14.4 µM (active); in test [5] it was 16.8 µM (active).

Consider `CCOC(=O)c1cc(-c2c(Cl)cccc2Cl)no1`, for which the IC50 in the test “cells” was 23 µM (active).

With `O=C(NNCc1ccc(O)cc1)c1ccccc1Cl`, the AC50 in [3] was 0.695 µM (active).

As to `Nc1ccc2[nH]ncc2c1`, in [1], the AC50 is 324 µM (active). Also, the EC50 at Protein RecA was 36.1 µM (active).

As to `O=c1ccn([C@@H]2C=C(CO)[C@@H](O)[C@H]2O)c(=O)[nH]1`, the GI50 with SN12K1 and in the test with P388 was > 625 µM (inactive) in each case.

For `COc1ccc(C2COc3cc(OC(C)=O)c(OC(C)=O)cc3C2)cc1` (stereo not given), the figures for the GI50 in the test with P388/ADR, in the test on SN12K1 and with P388 were 2.87 µM (inactive), 13.9 µM (inactive) and 3.08 µM (inactive), respectively.

Consider `Nc1nccc2c1ncn2C1C=C(CO)C(O)C1O` (stereo not given), for which the figures for the GI50 with P388/ADR, in the test with SN12K1 and in the test with P388 were 0.051 µM (active), 0.811 µM (active) and 0.0982 µM (active), respectively.

On to `CCCN1C(=O)/C(=C(/O)C(=O)OCC)C(c2ccc(OC)c(OC)c2)C1=O` (stereo not given), for which the GI50 with P388/ADR, in the test on SN12K1 and in the test with P388 was > 100 µM (inactive) each time.

In the case of `CCN(CC)CCCC(C)Nc1c2ccc(Cl)cc2nc2cc(Cl)ccc12` (stereo not given), the figures for the GI50 with P388/ADR, in the test with SN12K1 and in the test with P388 were 1.71 µM (inactive), 2.81 µM (inactive) and 1.87 µM (inactive), respectively.

Regarding `CCCCCC/C=C1\CCC(CN(C)C)C1=O` (stereo not given), the values for the GI50 in the test with P388/ADR, in the test with SN12K1 and in the test on P388 were 0.673 µM (active), 2.17 µM (inactive) and 1.08 µM (active), respectively.

With `COc1cccc2c1C(=O)c1c(O)c3c(c(O)c1C2=O)C[C@@](O)(C(=O)CN1CCOCC1)C[C@@H]3OC1CC(N)C(O)C(C)O1` (stereo not given in full), the GI50 was 14.7 µM (inactive) in the test on P388/ADR, 0.649 µM (active) with SN12K1 and 0.361 µM (active) in the test on P388.

As for `CCCCN(C)/N=N/c1[nH]cnc1C(N)=O`, the GI50 in the test with P388/ADR is > 100 µM (inactive); with SN12K1, 81.7 µM (inactive); in the test on P388, 63.8 µM (inactive).

`O=C1C2=C(C3=NCCc4c[nH]c1c43)c1c(cc(Br)c(O)c1Br)CCN2`: the GI50 in the test on P388/ADR is 10.2 µM (inactive); in the test on SN12K1, 6.97 µM (inactive); with P388, 3.37 µM (inactive).

As to `CCOC(=O)CN(CC)C(=O)NC12CC3CC(CC(C3)C1)C2`, the results for the GI50 with P388/ADR, with SN12K1 and in the test with P388 were 120 µM (inactive), 188 µM (inactive) and 175 µM (inactive), respectively.

On to `CC1=NCCc2cc3[nH]c4ccccc4c3cc21`, for which the results for the GI50 with P388/ADR, with SN12K1 and in the test with P388 were 9.04 µM (inactive), 14.6 µM (inactive) and 6.73 µM (inactive), respectively.

On to `C=C1C(=O)[C@@]23CC[C@H]4[C@@](C)(CCC[C@@]4(C)C(=O)OC)[C@@H]2CC[C@]1(O)C3`, for which the concentration for 50% growth inhibition (GI50) with P388/ADR was 0.0483 µM (active); with SN12K1, 1.45 µM (inactive); in the test on P388, 0.153 µM (active).

As for `C/C=C1\C[C@@H]2C(OC)Nc3cc(O)c(OC)cc3C(=O)N2C1` (stereo not given in full), the GI50 in the test on P388/ADR, in the test with SN12K1 and in the test on P388 was 0.01 µM (active) in each case.

Turning to `O=[N+]([O-])c1c(O)oc2ccccc2/c1=N\c1ccccc1O`, the IC50 in “cells” was 7.4 µM (active).

Turning to `O=S1(=O)N=C(N/N=C/C=C/c2ccccc2)c2ccccc21`, the IC50 in “cells” was 30.6 µM (active).

For the molecule `O=C(NNC(=O)c1ccc(-c2ccccc2)cc1)c1ccccc1`, the half-maximal inhibitory concentration (IC50) in test [6] was 11.2 µM (active).

Regarding `Nc1ccc2cn[nH]c2c1`, the AC50 in test [1] is 4.45 µM (active). Moreover, the EC50 at Protein RecA was 9.02 µM (active).

With `COc1cc([C@@H]2c3cc4c(c(O)c3C[C@H]3COC(=O)[C@@H]32)OCO4)cc(OC)c1O`, the GI50 in the test on P388/ADR was 0.02 µM (active); in the test with SN12K1, 0.0208 µM (active); in the test on P388 it was 0.0261 µM (active).

In general, AC50 refers to the concentration at which the activity in the assay is half-maximal. The EC50 is the concentration giving half of the maximal effect. The IC50 is the concentration that gives 50% inhibition. For orientation: GI50 means the concentration giving 50% growth inhibition.
